Data taken from the supplement of paper PMC10307832.

What was measured:
Experiment in all cases: relative viability (nuclei count vs DMSO), 5 days (fraction); higher = more cells survive
BI-2536 + Bortezomib = compound: CC[C@@H]1C(=O)N(C)c2cnc(Nc3ccc(C(=O)NC4CCN(C)CC4)cc3OC)nc2N1C1CCCC1 [BI-2536] + CC(C)C[C@H](NC(=O)[C@H](Cc1ccccc1)NC(=O)c1cnccn1)B(O)O [Bortezomib] (partner 0.002 µM)
Procedure, shortened: (§1)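 Five library-drug doses in √10 steps were combined with a fixed anchor-drug dose, or a single drug was given alone, by pin tool to lung cancer cell lines in 1536-well plates the day after seeding. Nuclei were stained and counted after 5 days. Relative viability is the nuclei count in treated wells over that in vehicle wells, taken as the median of duplicate plates.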

BI-2536 + Decitabine = compound: CC[C@@H]1C(=O)N(C)c2cnc(Nc3ccc(C(=O)NC4CCN(C)CC4)cc3OC)nc2N1C1CCCC1 [BI-2536] + Nc1ncn([C@H]2C[C@H](O)[C@@H](CO)O2)c(=O)n1 [Decitabine] (partner 2 µM)
Procedure, shortened: as §1

BI-2536 + Crizotinib = compound: CC[C@@H]1C(=O)N(C)c2cnc(Nc3ccc(C(=O)NC4CCN(C)CC4)cc3OC)nc2N1C1CCCC1 [BI-2536] + C[C@@H](Oc1cc(-c2cnn(C3CCNCC3)c2)cnc1N)c1c(Cl)ccc(F)c1Cl [Crizotinib] (partner 1 µM)
Procedure, shortened: as §1

BI-2536 + Olaparib = compound: CC[C@@H]1C(=O)N(C)c2cnc(Nc3ccc(C(=O)NC4CCN(C)CC4)cc3OC)nc2N1C1CCCC1 [BI-2536] + O=C(c1cc(Cc2n[nH]c(=O)c3ccccc23)ccc1F)N1CCN(C(=O)C2CC2)CC1 [Olaparib] (partner 8 µM)
Procedure, shortened: as §1

UMC-11
relative viability (BI-2536 + Bortezomib; first compound 0.01 µM): 0.601
relative viability (BI-2536 + Bortezomib; first compound 0.03162 µM): 0.414
relative viability (BI-2536 + Bortezomib; first compound 0.1 µM): 0.175
relative viability (BI-2536 + Bortezomib; first compound 0.3162 µM): 0.134
relative viability (BI-2536 + Bortezomib; first compound 1 µM): 0.104
relative viability (BI-2536 + Decitabine; first compound 0.01 µM): 0.568
relative viability (BI-2536 + Decitabine; first compound 0.03162 µM): 0.306
relative viability (BI-2536 + Decitabine; first compound 0.1 µM): 0.232
relative viability (BI-2536 + Decitabine; first compound 0.3162 µM): 0.265
relative viability (BI-2536 + Decitabine; first compound 1 µM): 0.28
relative viability (BI-2536 + Crizotinib; first compound 0.01 µM): 0.48
relative viability (BI-2536 + Crizotinib; first compound 0.03162 µM): 0.237
relative viability (BI-2536 + Crizotinib; first compound 0.1 µM): 0.148
relative viability (BI-2536 + Crizotinib; first compound 0.3162 µM): 0.133
relative viability (BI-2536 + Crizotinib; first compound 1 µM): 0.1
relative viability (BI-2536 + Olaparib; first compound 0.01 µM): 0.389
relative viability (BI-2536 + Olaparib; first compound 0.03162 µM): 0.414
relative viability (BI-2536 + Olaparib; first compound 0.1 µM): 0.251
relative viability (BI-2536 + Olaparib; first compound 0.3162 µM): 0.218
relative viability (BI-2536 + Olaparib; first compound 1 µM): 0.209
